“Also recorded” adds a separate entry of the source.
Tests used:
[1] = molecular target: α2 subunit-containing GABAA receptors (Homo sapiens, UniProt P18507+P47869); parameters: key: act as partial positive modulators for particular subtype combinations; none: zero efficacy (i.e., antagonism) at other subtypes; conditions: cited from earlier work
rhesus monkeys [2] = assay: i.v. self-administration under progressive-ratio (PR) schedule; assay type: in vivo, rhesus monkey; conditions: dose at which self-administration was highest; n=4 monkeys; FIG. 5
Text: The abuse potential of novel compounds can be determined by use of i.v. self-administration procedures, in which a compound is available to a subject previously trained to press a lever to obtain a known drug of abuse. Our standard procedure is to use a progressive-ratio (PR) schedule, in which an increasing number of responses are required to obtain an injection. The last response requirement completed is referred to as a “break point” (BP) and represents the maximum amount of “work” a subject will perform to obtain the drug or compound.
In the present example, eight rhesus monkeys (4 females, 4 males) were trained to respond under a schedule of i.v. midazolam (a conventional benzodiazepine) injection at 0.03 mg/kg/injection. Once self-administration had been acquired (>20 injections/daily 2-hour sessions), monkeys were trained under the PR schedule as described by Shinday et al. (2013). Daily experimental sessions consisted of five components, each made up of four trials (i.e., 20 trials total). […]
In order to directly compare lorazepam and TPA023B self-administration, we here analyzed BP values at the doses that maintained the highest level of mean injections/session and compared these BP values with those obtained after vehicle tests.

[3] = molecular target: α5 subunit-containing GABAA receptors (Homo sapiens, UniProt P18507+P31644); parameters: key to Subtype α5: act as partial positive modulators for particular subtype combinations; none: zero efficacy (i.e., antagonism) at other subtypes; conditions: cited from earlier work
Sequence of α5 subunit-containing GABAA receptors (P31644 32-462): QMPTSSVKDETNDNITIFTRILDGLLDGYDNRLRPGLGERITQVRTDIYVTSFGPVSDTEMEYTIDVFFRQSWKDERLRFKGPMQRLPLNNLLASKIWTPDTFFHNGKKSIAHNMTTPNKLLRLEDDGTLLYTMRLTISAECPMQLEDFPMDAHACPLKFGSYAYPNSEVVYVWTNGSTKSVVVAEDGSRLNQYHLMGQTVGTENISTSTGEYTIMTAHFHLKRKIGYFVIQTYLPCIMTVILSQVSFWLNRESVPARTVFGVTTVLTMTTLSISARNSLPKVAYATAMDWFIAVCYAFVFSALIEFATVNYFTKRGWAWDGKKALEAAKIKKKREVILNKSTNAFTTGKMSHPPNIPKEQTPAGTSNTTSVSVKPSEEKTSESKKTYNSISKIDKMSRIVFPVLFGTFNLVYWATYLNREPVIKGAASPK
Sequence of α5 subunit-containing GABAA receptors (P18507 40-475): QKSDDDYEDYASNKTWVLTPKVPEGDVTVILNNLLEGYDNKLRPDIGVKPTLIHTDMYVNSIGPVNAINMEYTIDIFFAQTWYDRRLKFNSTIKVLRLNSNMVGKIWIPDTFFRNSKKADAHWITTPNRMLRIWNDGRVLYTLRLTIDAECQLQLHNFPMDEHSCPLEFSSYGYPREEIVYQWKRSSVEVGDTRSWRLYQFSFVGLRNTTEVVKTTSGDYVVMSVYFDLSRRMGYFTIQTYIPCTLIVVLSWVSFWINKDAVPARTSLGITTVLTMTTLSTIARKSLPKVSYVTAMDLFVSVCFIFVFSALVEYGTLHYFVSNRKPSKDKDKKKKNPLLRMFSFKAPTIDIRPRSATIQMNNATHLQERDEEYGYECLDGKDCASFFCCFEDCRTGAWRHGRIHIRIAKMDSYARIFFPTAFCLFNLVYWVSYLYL
Sequence of α5 subunit-containing GABAA receptors (P28472 26-473 partner): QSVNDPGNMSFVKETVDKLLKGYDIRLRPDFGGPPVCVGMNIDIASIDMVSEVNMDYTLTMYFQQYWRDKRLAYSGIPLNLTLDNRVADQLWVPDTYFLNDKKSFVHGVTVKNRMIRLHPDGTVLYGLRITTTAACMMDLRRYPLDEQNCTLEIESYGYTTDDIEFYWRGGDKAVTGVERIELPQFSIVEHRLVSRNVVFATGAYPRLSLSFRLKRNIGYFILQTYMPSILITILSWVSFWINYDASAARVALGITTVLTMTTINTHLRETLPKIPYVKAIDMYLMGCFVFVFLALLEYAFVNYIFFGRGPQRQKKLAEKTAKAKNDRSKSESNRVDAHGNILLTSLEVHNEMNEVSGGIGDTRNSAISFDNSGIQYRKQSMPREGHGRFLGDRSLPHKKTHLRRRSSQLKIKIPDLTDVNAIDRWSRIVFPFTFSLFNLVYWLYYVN

rhesus monkeys [4] = assay: Food self-administration (PR) after TPA023B pretreatment; assay type: in vivo, rhesus monkey; conditions: up to 0.3 mg/kg TPA023B i.v. pretreatment; 2 pellets/delivery
Text: To evaluate the extent to which suppression of lever-pressing behavior by TPA023B represents non-specific inhibition, we also tested food self-administration under the PR schedule. For these experiments, test sessions were scheduled similar to those with midazolam dose/vehicle, except that 2 food pellets (1-g BioServ flavored food pellets) were available as reinforcers rather than midazolam dose. All other aspects of the test was the same, including response requirements and TPA023B pretreatment conditions.

Sprague-Dawley rats [5] = assay: Pulmonary ventilation, whole body plethysmography; assay type: in vivo, rat; conditions: over the doses tested, i.p.; N=8 rats
Protocol: We first assessed the effects of TPA023B, in comparison with alprazolam, using whole body plethysmography (WBP; DSI systems). For these studies, adult male Sprague-Dawley rats (n=8) were habituated to the chambers for 30 min. The chamber was then filled with 21% oxygen, sealed, and pressure fluctuation measured for 1 min. Next, the chamber was opened and the rats were injected with alprazolam or TPA023B, i.p., and placed into the sealed chamber for a 15 min pretreatment time. The chamber was again filled with 21% oxygen, and for 1 min, fluctuating pressure amounts were recorded to obtain tidal volume (lung capacity), breaths/minute, and minute volume (lung capacity per unit time).

Sprague-Dawley rats [6] = assay: Precipitated withdrawal/acute dependence: responding 60 min after diazepam bolus; assay type: in vivo, rat; conditions: all doses tested, vs ligand alone; FIGS. 11A and 11B
Protocol: Acute dependence can occur after single exposures to the benzodiazepine chlordiazepoxide, but not to an α2/3GABAA selective ligand (Fischer et al. 2013, Psychopharmacology 227: 347-54). Here, the extent to which TPA023B can precipitate withdrawal in rats following a single, large bolus dose of diazepam was studied. […] Once rates of responding were stable, doses of diazepam, the non-selective benzodiazepine antagonist flumazenil, and TPA023B were administered prior to the session.

[7] = molecular target: α3 subunit-containing GABAA receptors (Homo sapiens, UniProt P18507+P34903); parameters: key: act as partial positive modulators for particular subtype combinations; none: zero efficacy (i.e., antagonism) at other subtypes; conditions: cited from earlier work
Sequence of α3 subunit-containing GABAA receptors (P34903 29-492): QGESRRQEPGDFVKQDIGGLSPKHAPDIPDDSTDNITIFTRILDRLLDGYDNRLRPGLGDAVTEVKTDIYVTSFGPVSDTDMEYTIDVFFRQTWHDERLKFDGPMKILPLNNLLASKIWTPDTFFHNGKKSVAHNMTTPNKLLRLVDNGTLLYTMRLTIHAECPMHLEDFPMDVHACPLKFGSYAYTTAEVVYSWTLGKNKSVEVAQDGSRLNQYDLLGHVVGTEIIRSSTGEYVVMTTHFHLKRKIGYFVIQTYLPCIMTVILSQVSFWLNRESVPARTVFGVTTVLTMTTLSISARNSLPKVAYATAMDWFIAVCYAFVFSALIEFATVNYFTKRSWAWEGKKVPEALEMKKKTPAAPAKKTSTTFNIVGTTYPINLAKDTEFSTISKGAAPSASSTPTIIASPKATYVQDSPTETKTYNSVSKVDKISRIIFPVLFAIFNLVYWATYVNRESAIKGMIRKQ
Sequence of α3 subunit-containing GABAA receptors (P18507 40-475): as the sequence (P18507 40-475) above
Sequence of α3 subunit-containing GABAA receptors (P28472 26-473 partner): as the sequence (P28472 26-473 partner) above

rhesus monkeys [8] = assay: Observation/sedation, focal animal behavioral scoring; assay type: in vivo, rhesus monkey; conditions: i.v.
Protocol: For the data shown here, the behavior of each monkey (n=4 total) was scored using a focal animal approach as described previously (Duke et al. 2018, J Pharmacol Exp Ther 366: 145-57). Briefly, a trained observer blind to the drug treatments observed a specific monkey for 5 min and recorded each instance that a particular behavior occurred during 15-s intervals. Scores for each behavior were calculated as the number of 15-s bins in which the behavior occurred (e.g., a maximum score would be 20). For sedation measures, structured exposure to stimuli were included in the observation sessions (Duke et al., 2018). […] Specifically, the observer presented three stimuli: 1) walked at a normal pace towards the cage, 2) spoke the animal's name, and 3) moved the lock used to secure the door of the cage. […] If the monkey attended more slowly (i.e., >3 s following stimuli), the observer scored “moderate sedation”.
The assessment of sedation was initiated during the 5-min sampling period if the animal presented, at any time during that period, with its eyes closed for longer than 3 s. The result of this assessment was recorded for each remaining 15-sec interval of the 60-sec epoch unless eyes opened. Afterwards, eyes closing again initiated the assessment. If eyes remained closed, then the assessment was repeated at the beginning of the next 60-sec epoch 15-sec interval. Therefore, the maximum score for sedation during a 5-min period was 20 (four possible scores for 4×15-sec intervals per min, 5 min total; i.e., 4 possible scores×5 min=20). The order in which animals were observed and the observer performing the scoring each day was randomized. Four observers participated in the scoring throughout the duration of the study; each observer underwent a minimum of 20 hours of training and met an inter-observer reliability criterion of ≥90% agreement with all other observers.
The five-min sampling periods were repeated at multiple times following i.v. injection of TPA023B or vehicle (minutes post injection): 5, 10, 20, 40, 80, 160, 320. Scores were cumulated across the time periods, resulting in a maximum possible cumulative score of 140. TPA023B was compared with alprazolam, and the results have been published by Duke et al. (2018).

[9] = at least one dose significantly different from vehicle, out of 22 behaviors, N = 4 monkeys

Sequence of α2 subunit-containing GABAA receptors (P47869 29-451): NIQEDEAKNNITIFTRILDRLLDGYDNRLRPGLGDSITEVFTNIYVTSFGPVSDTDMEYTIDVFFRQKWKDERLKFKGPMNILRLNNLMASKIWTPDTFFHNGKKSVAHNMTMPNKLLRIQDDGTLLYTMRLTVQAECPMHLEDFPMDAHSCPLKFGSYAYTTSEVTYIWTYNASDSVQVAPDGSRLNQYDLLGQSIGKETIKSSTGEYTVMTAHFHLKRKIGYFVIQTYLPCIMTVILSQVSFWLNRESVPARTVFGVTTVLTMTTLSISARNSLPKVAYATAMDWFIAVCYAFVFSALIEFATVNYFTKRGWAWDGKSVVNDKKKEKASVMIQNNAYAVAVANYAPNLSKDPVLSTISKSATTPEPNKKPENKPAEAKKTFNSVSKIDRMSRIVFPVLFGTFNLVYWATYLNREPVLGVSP
Sequence of α2 subunit-containing GABAA receptors (P18507 40-475): as the sequence (P18507 40-475) above
Sequence of α2 subunit-containing GABAA receptors (P28472 26-473 partner): as the sequence (P28472 26-473 partner) above

Compound: CC(C)(O)c1cnn2c(-c3ccc(F)c(-c4c(F)cccc4C#N)c3)cnc2n1 [TPA023B]
- Subtype α2 [1]: partial
- median break point (BP), highest response requirement (rhesus monkeys [2]): 160
- Subtype α5 [3]: partial
- effect on food-maintained responding (rhesus monkeys [4]): did not alter
- any ventilatory parameter (breathing frequency, tidal volume, minute volume) (Sprague-Dawley rats [5]): did not alter; also recorded: no effects
- rates of responding 60 min after 3.0 mg/kg diazepam (precipitated withdrawal) (Sprague-Dawley rats [6]): did not alter rates of responding
- Subtype α3 [7]: partial
- highest tolerated dose relative to lowest dose inducing rest/sleep posture (rhesus monkeys [8]; 1.0 mg/kg): 30 fold
- Significant behavioral effects: Decrease (rhesus monkeys [8]; [9]): Tactile/Oral Exploration
- Significant behavioral effects: Increase (rhesus monkeys [8]; [9]): Rest/Sleep Posture
- tolerability (rhesus monkeys [8]; up to doses of 1.0 mg/kg): well-tolerated

From patent US12233070B2, “Methods for treating benzodiazepine misuse/use disorder” (University of M[…] Center, priority 2020, dated 2025)
